# Data from patent US10584124B2, “Crystalline forms” (Array BioPharma Inc., priority 2017, dated 2020).
# Assay: Primary salt screen of the compound of Formula II: XRPD post-cycling and post-stability (40° C., 75% RH overnight)
# Assay type: physicochemical
# Settings: compound of Formula II + the acid given as label; for XRPD post-cycling: cycled RT/40° C. over 24 hours; for XRPD post-stability: 40° C. and 75% RH overnight
# Experimental: The salt screen was performed as follows. […] In cases where stock solutions could not be attained, the acid was added neat to the solution of the compound of Formula II.
# The samples were then temperature cycled between ambient (RT) and 40° C. in 4-hour cycles over 24 hours. Each mixture was filtered and isolated solids were analyzed (wet) by XRPD to determine crystallinity and form. Samples in which solid was not observed were stored uncapped to allow solvent evaporation. The remaining samples were placed in an oven at 40° C. and 75% RH overnight. The samples were then reanalyzed by XRPD to determine any changes in form or crystallinity. The observations and results, including the different diffractogram patterns observed during the screen, are shown in Tables 29-53, below, and FIGS. 24A-24B through 47A-47B.
Structure (SMILES),XRPD post-cycling (Acetone/water (10%)),XRPD post-cycling (Dioxane/water (10%)),XRPD post-cycling (EtOH/water (10%)),XRPD post-cycling (IPA/water (10%)),XRPD post-cycling (MeCN/water (20%)),XRPD post-cycling (THF/water (1%)),XRPD post-stability (from Acetone/water (10%)),XRPD post-stability (from Dioxane/water (10%)),XRPD post-stability (from EtOH/water (10%)),XRPD post-stability (from IPA/water (10%)),XRPD post-stability (from MeCN/water (20%)),XRPD post-stability (from THF/water (1%))
"O=S(=O)(O)CCS(=O)(=O)O [1,2-Ethane disulfonic acid]",No solid,No solid,No solid,No solid,No solid,No solid,No solid,No solid,No solid,No solid,No solid,No solid
O=S(=O)(O)CCO [2-Hydroxy ethanesulfonic acid],,Form 7,Form 7,,,,,Form 7,Form 7,,,
O=S(=O)(O)c1ccccc1 [Benzene sulfonic acid],,No solid,Form 2,Form 2,No solid,No solid,,No solid,Form 2,Form 2,No solid,No solid
CCS(=O)(=O)O [Ethane sulfonic acid],No solid,No solid,No solid,Amorphous,No solid,No solid,No solid,No solid,No solid,Amorphous,No solid,No solid
Cl [Hydrochloric acid],Form 2,Form 2,Form 2,Form 2,Form 2,Form 2,Form 2,Form 2,Form 2,Form 2,Form 2,Form 2
O=P(O)(O)O [Phosphoric acid],Form 9,No solid,,Form 10,No solid,Amorphous,,No solid,Form 10,Form 10,No solid,Form 10
O=S(=O)(O)O [Sulfuric acid],No solid,No solid,No solid,Form 3,No solid,No solid,No solid,No solid,No solid,Form 5,No solid,No solid
Cc1ccc(S(=O)(=O)O)cc1 [p-Toluene sulfonic acid],Form 4,No solid,Amorphous,Amorphous,No solid,,Form 4,No solid,Amorphous,Form 4,No solid,Form 4

# The remaining lines, values ahead:
XRPD post-cycling (Acetone/water (10%)),XRPD post-cycling (Dioxane/water (10%)),XRPD post-cycling (EtOH/water (10%)),XRPD post-cycling (IPA/water (10%)),XRPD post-cycling (MeCN/water (20%)),XRPD post-cycling (THF/water (1%)),XRPD post-stability (from Acetone/water (10%)),XRPD post-stability (from Dioxane/water (10%)),XRPD post-stability (from EtOH/water (10%)),XRPD post-stability (from IPA/water (10%)),XRPD post-stability (from MeCN/water (20%)),XRPD post-stability (from THF/water (1%)),Structure (SMILES)
,,,Form 8,,Form 8,Form 14,,,Form 8,Form 8,Form 8,N[C@@H](CC(=O)O)C(=O)O [L-Aspartic acid]
Amorphous,No solid,Amorphous,Amorphous,No solid,,Amorphous,No solid,Amorphous,Amorphous,No solid,Form 15,O=C(O)/C=C\C(=O)O [Maleic acid]
Amorphous,No solid,Amorphous,Form 2,No solid,No solid,Amorphous,No solid,Amorphous,Form 2,No solid,No solid,CS(=O)(=O)O [Methane sulfonic acid]
,,Form 2,,,Form 5,,,Form 2,,,,O=S(=O)(O)c1ccc2ccccc2c1 [Naphthalene-2-sulfonic acid]
Amorphous,Form 6,Amorphous,Amorphous,No solid,No solid,,Form 6,Form 6,Form 6,No solid,No solid,O=C(O)C(=O)O [Oxalic acid]
